Laboratory results published in US10508086B2 (CANCER RESEARCH TECHNOLOGY LIMITED, priority 2014, dated 2019).
Where two headings read alike, the source gives them in different places.

Legend:
[1] = molecular target: PARG in HeLa cell line (Homo sapiens (Human), UniProt Q86W56); assay: PARG cell assay (nuclear PAR chains after MMS, immunofluorescence); format: cell-based
Protocol: This method is based on the detection of endogenous levels of poly (ADP) ribose chains present in the nucleus of HeLa cell line using indirect immunofluorescence. MMS stimulation increases PAR chains for up to 25 mins. After that point, PARG is active and breaks down the PAR chains, until by one hour after stimulation no PAR chains are detectable. Inhibition of PARG maintains PAR chains.
Briefly, following compound treatment and treatment with the DNA damaging agent methylmethanesulfonate (MMS), the cell monolayer is fixed, then permeabilised and incubated with a mouse monoclonal antibody raised against multimers of poly(ADP) ribose. After an overnight incubation, excess antibody is removed by washing and an Alexafluor 488-linked secondary antibody which recognises the mouse monoclonal is added together with a nuclear stain (Hoechst 33342). Images of the cells are then captured and analysed on a High Content Screening platform and the total intensity of the nuclear fluorescent signal at […] is quantified.
HeLa cells, seeded in 384-well plates, at 4000/well in 30 μL RPMI 1640 media, supplemented with 10% FBS and 2 mM Glutamax, were incubated overnight at 37° C., 5% CO2.
The following day, cells were dosed in quadruplicate with compound (10 point dose response) and incubated for 1 h at 37° C., 5% CO2.
At the end of the 1 h dosing period, MMS was added to duplicates at a final concentration of 50 μg/mL, for a further hour.
Media was tipped off and the cells fixed with 50 μL ice-cold 95% MetOH/PBS for 15 mins at −20° C. Following a PBS wash, 50 μL PBS/0.1% Triton was added to the cells for 20 mins. Following another PBS wash, anti-PAR antibody (Calbiochem AM80) was diluted 1:4000 in a buffer (PBS+0.5% FBS+0.05% Tween20) and added to the cells and incubated overnight at 4° C.
The following day, cells were washed three times with PBS and then incubated for 1 hr with secondary antibody (Alexa Fluor® 488 goat anti mouse IgG (H+L)) diluted 1:1000 and Hoechst diluted 1:5000 in buffer (5% FBS in PBS+0.05% Tween20).
Cells were washed three times with PBS and the plate sealed with a light-proof seal.
Images of the cells were captured on a ThermoFisher Celllnsight and the mean total intensity of spots fluorescent at 485 nm in the nucleus was reported.

[2] = molecular target: Human Full Length PARG (Homo sapiens (Human), UniProt Q86W56); assay: PARG in vitro enzyme assay (TR-FRET); format: biochemical; settings: read-out: PARG_EC50_ENZYME
Human Full Length PARG, sequence (Q86W56 whole entry): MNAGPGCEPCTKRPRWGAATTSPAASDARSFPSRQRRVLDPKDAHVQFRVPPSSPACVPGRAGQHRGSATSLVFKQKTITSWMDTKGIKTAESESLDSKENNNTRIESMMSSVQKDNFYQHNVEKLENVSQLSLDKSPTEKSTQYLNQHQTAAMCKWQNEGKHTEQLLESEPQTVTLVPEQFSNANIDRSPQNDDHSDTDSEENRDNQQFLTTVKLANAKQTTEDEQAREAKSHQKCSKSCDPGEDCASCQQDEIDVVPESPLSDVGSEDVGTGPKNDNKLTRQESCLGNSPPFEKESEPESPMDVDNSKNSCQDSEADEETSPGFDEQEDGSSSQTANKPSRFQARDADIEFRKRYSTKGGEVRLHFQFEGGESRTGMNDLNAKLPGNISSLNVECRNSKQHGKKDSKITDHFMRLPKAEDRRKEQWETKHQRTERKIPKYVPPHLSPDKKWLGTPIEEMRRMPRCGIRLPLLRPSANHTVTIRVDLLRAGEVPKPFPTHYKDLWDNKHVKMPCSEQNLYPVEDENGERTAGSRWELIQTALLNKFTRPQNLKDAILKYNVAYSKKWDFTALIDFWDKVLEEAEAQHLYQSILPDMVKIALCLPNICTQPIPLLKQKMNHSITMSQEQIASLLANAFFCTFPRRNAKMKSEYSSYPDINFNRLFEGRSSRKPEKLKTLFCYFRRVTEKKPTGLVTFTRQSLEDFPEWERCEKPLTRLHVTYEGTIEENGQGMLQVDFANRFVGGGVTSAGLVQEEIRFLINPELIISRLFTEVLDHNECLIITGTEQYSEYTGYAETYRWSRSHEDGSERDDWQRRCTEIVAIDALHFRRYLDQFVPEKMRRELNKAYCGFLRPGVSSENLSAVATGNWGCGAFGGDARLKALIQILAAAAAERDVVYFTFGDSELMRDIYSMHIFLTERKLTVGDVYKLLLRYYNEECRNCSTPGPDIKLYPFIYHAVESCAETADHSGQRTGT
Method in brief: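 Full-length human PARG ([…]) incubated with ribosylated PARP substrate (4.5 nM) for 10 min at room temperature in Tris pH 7.4 buffer with EDTA, EGTA, DTT, KCl. Detection by TR-FRET using anti-6HIS XL665 (14 nM final) and streptavidin europium cryptate (0.75 nM final) after 60 min; Em665/Em620 ratio converted to percent inhibition.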

[3] = HeLa cells, MMS 50 μg/mL, read-out: PARG Cell IC50 Geomean

PARG in HeLa cell line, sequence (Q86W56 whole entry): as above

| Compound | IC50 [1, 3] | EC50 [2] | IC50 [1] |
| --- | --- | --- | --- |
| Cc1cc(Cn2c(=O)n(-c3nnc(C)s3)c3cc(S(=O)(=O)NC4(C)CC4)ccc32)n(C)n1 [Example 84] | 271 nM | 359 nM |  |
| COc1ccc(Cn2c(=O)n(-c3nnc(C)s3)c3cc(S(=O)(=O)NC4(C)CC4)ccc32)cc1 [Example 86] | 277 nM | 403 nM |  |
| Cn1c(=O)n(-c2ncns2)c2cc(S(=O)(=O)NC3(C)CC3)ccc21 [Example 98] | 694 nM | 359 nM |  |
| Cc1nnc(-n2c(=O)n(Cc3sc(C)nc3C)c3ccc(S(=O)(=O)NC4(C)CC4)cc32)o1 [Example 99] | 342 nM | 202 nM |  |
| C#CCn1c(=O)n(-c2nnc(C)s2)c2cc(S(=O)(=O)NC3(C)CC3)ccc21 [Example 100] | 194 nM | 265 nM |  |
| Cc1nnc(-n2c(=O)n(Cc3ncco3)c3ccc(S(=O)(=O)NC4(C)CC4)cc32)s1 [Example 101] | 390 nM | 246 nM |  |
| Cc1ccc(Cn2c(=O)n(-c3nnc(C)s3)c3cc(S(=O)(=O)NC4(C)CC4)ccc32)o1 [Example 103] | 221 nM | 284 nM |  |
| Cc1ccc(Cn2c(=O)n(-c3nnc(C)s3)c3cc(S(=O)(=O)NC4(C)CC4)ccc32)s1 [Example 104] | 245 nM | 280 nM |  |
| COc1nsc(-n2c(=O)n(Cc3sc(C)nc3C)c3ccc(S(=O)(=O)NC4(C)CC4)cc32)n1 [Example 105] | 246 nM | 269 nM |  |
| Cc1cnc(-n2c(=O)n(Cc3sc(C)nc3C)c3ccc(S(=O)(=O)NC4(C)CC4)cc32)s1 [Example 107] | 159 nM | 86 nM |  |
| Cc1nc(C)c(Cn2c(=O)n(-c3nc(Br)ns3)c3cc(S(=O)(=O)NC4(C)CC4)ccc32)s1 [Example 108] | 67 nM | 69 nM |  |
| Cc1nc(C)c(Cn2c(=O)n(-c3nccs3)c3cc(S(=O)(=O)NC4(C)CC4)ccc32)s1 [Example 111] | 507 nM | 147 nM |  |
| CCOC(=O)n1c(=O)n(Cc2sc(C)nc2C)c2ccc(S(=O)(=O)NC3(C)CC3)cc21 [Example 112] | 850 nM | 140 nM |  |
| Cc1nnc(-n2c(=O)n(C)c3cc(F)c(S(=O)(=O)NC4(C)CC4)cc32)s1 [Example 116, 6-Fluoro-1-methyl-N-(1-methylcyclopropyl)-3-(5-methyl-1,3,4-thiadiazol-2-yl)-2-oxo-benzimidazole-5-sulfonamide] | 197 nM | 245 nM |  |
| CNC(=O)c1noc(Cn2c(=O)n(-c3nnc(C)o3)c3cc(S(=O)(=O)NC4(C)CC4)ccc32)n1 [Example 117] | 24700 nM | 275 nM |  |
| Cc1nnc(-n2cc(C(=O)C3CC3)c3ccc(S(=O)(=O)NC4(C)CC4)cc32)s1 [Example 130, 3-(Cyclopropanecarbonyl)-N-(1-methylcyclopropyl)-1-(5-methyl-1,3,4-thiadiazol-2-yl) indole-6-sulfonamide] | 135 nM | 218 nM |  |
| Cc1nnc(-n2cc(C(=O)c3ccc(F)cc3)c3ccc(S(=O)(=O)NC4(C)CC4)cc32)s1 [Example 131, 3-(4-Fluorobenzoyl)-N-(1-methylcyclopropyl)-1-(5-methyl-1,3,4-thiadiazol-2-yl)indole-6-sulfonamide] |  | 261 nM | 228 nM |
| Cc1nnc(-n2c(=O)n(CCCN(C)C)c3ccc(S(=O)(=O)NC4(C)CC4)cc32)s1 [Example 135] | 371 nM | 512 nM |  |
| Cc1nnc(-n2c(=O)n(CCN3CCCCC3)c3ccc(S(=O)(=O)NC4(C)CC4)cc32)o1 [Example 140] |  | 1970 nM |  |

| Compound | IC50 [1, 3] | EC50 [2] | IC50 [1] |
| --- | --- | --- | --- |
| Cc1nnc(-n2c(=O)n(CCN3CCOCC3)c3ccc(S(=O)(=O)NC4(C)CC4)cc32)o1 [Example 141] |  | 1120 nM |  |
| Cc1nnc(-n2c(=O)n(CCN3CCCC3)c3ccc(S(=O)(=O)NC4(C)CC4)cc32)o1 [Example 142] |  | 3800 nM |  |
| Cc1nnc(-n2c(=O)n(CC3CCCCN3C)c3ccc(S(=O)(=O)NC4(C)CC4)cc32)s1 (stereo not shown) [Example 143] | 343 nM | 441 nM |  |
| CC(=O)c1cn(-c2nnc(C)s2)c2cc(S(=O)(=O)NC3(C)CC3)ccc12 [Example 144, 3-Acetyl-N-(1-methylcyclopropyl)-1-(5-methyl-1,3,4-thiadiazol-2-yl)indole-6-sulfonamide] |  | 595 nM |  |
| COCCn1c(=O)n(-c2nnc(C)s2)c2cc(S(=O)(=O)NC3(C)CC3)ccc21 [Example 147] | 437 nM | 461 nM |  |
| COCCCn1c(=O)n(-c2nnc(C)s2)c2cc(S(=O)(=O)NC3(C)CC3)ccc21 [Example 148] | 238 nM | 373 nM |  |
| Cc1nnc(-n2c(=O)n(CCN3CCCCC3)c3ccc(S(=O)(=O)NC4(C)CC4)cc32)s1 [Example 149] |  | 735 nM |  |
| COCCCn1c(=O)n(-c2nnc(C)o2)c2cc(S(=O)(=O)NC3(C)CC3)ccc21 [Example 150] |  | 904 nM |  |
| Cc1nnc(-n2c(=O)n(CCC(N)=O)c3ccc(S(=O)(=O)NC4(C)CC4)cc32)o1 [Example 151] |  | 1160 nM |  |
| Cc1nnc(-n2c(=O)n(CCN3CCOCC3)c3ccc(S(=O)(=O)NC4(C)CC4)cc32)s1 [Example 152] | 194 nM | 275 nM |  |
| Cc1nnc(-n2c(=O)n(CCN3CCCC3)c3ccc(S(=O)(=O)NC4(C)CC4)cc32)s1 [Example 153] |  | 1120 nM |  |
| Cc1nnc(-n2c(=O)n(CCC(N)=O)c3ccc(S(=O)(=O)NC4(C)CC4)cc32)s1 [Example 154] | 9080 nM | 614 nM |  |
| Cc1nnc(-n2c(=O)n(CC3CCCN3C)c3ccc(S(=O)(=O)NC4(C)CC4)cc32)s1 (stereo not shown) [Example 155] | 166 nM | 464 nM |  |
| Cc1nnc(-n2c(=O)n(C)c3ccc(S(=O)(=O)NC4(CF)CC4)cc32)s1 [Example 156, N-[1-(Fluoromethyl)cyclopropyl]-1-methyl-3-(5-methyl-1,3,4-thiadiazol-2-yl)-2-oxo-benzimidazole-5-sulfonamide] | 589 nM | 686 nM |  |
| Cc1nnc(-n2c(=O)[nH]c3ccc(S(=O)(=O)NC4(C#N)CC4)cc32)s1 [Example 157, N-(1-Cyanocyclopropyl)-3-(5-methyl-1,3,4-thiadiazol-2-yl)-2-oxo-1H-benzimidazole-5-sulfonamide] | 3500 nM | 1170 nM |  |
| CCn1c(=O)n(-c2nnc(C)s2)c2cc(S(=O)(=O)NC3(C#N)CC3)ccc21 [Example 158, N-(1-Cyanocyclopropyl)-1-ethyl-3-(5-methyl-1,3,4-thiadiazol-2-yl)-2-oxo-benzimidazole-5-sulfonamide] | 486 nM | 1040 nM |  |
| CCn1c(=O)n(-c2nnc(C)s2)c2cc(S(=O)(=O)NC3(CF)CC3)ccc21 [Example 159, 1-Ethyl-N-[1-(fluoromethyl)cyclopropyl]-3-(5-methyl-1,3,4-thiadiazol-2-yl)-2-oxo-benzimidazole-5-sulfonamide] | 349 nM | 590 nM |  |
| COCCn1c(=O)n(-c2nnc(C)s2)c2cc(S(=O)(=O)NC3(CF)CC3)ccc21 [Example 160, N-[1-(Fluoromethyl)cyclopropyl]-1-(2-methoxyethyl)-3-(5-methyl-1,3,4-thiadiazol-2-yl)-2-oxo-benzimidazole-5-sulfonamide] | 453 nM | 616 nM |  |
| Cc1nsc(-n2c(=O)n(C)c3ccc(S(=O)(=O)NC4(CF)CC4)cc32)n1 [Example 177] | 2540 nM |  |  |
